Results reported in patent US20050043260A1, “Wnt as a factor for cardiac myogenesis” (BAYLOR COLLEGE OF MEDICINE, priority 2003, published 2005).

Columns and labels:
Type in all cases: cell-based
P19CL6 cells [1] = assay: Cardiac-specific gene expression by QRT-PCR in differentiating P19CL6 cells; set-up: expression of Nkx2.5, GATA4, Tbx5, BMP2, BMP4: dose or concentration left out as unconfirmed
Method: (§1) Cells were grown on 10 cm dishes in α-minimal MEM; Invitrogen) supplemented with 10% fetal bovine serum (FBS) (Hyclone), streptomycin. To induce differentiation, cells were seeded at a 1:40 dilution with α-MEM, DMSO. For each experiment, cardiomyocyte differentiation was apparent in the control spontaneous beating, starting day 9 to 10. To obtain stable transformants incorporating GSK-vector control, cells were transfected using Lipofectamine2000 (Invitrogen) and medium containing 500 μg/ml Geniticin (Invitrogen). After 10-14 day, 60 colonies were picked and screened by RT-PCR. To detect exogenous GSK-3β selectively, the 5′ primer corresponded to the N terminus and the 3′ primer to the H. influenza hemagglutinin epitope tag.
RNA was isolated using TRIzol (Invitrogen). RNA (0.1 μg) was subjected to quantitative RT-PCR using the TaqMan One-step RT-PCR Master Mix Biosystems); the RT and PCR were run sequentially using a 7700 Sequence Detector (Applied Biosystems). Copy number for each transcript was expressed relative to that of glyceraldehyde-3-phosphate dehydrogenase (GAPDH), used as a constitutive control. RT-PCR for FGF8 and β-actin was done as described by Lee et al., 2000).

β-catenin = β-catenin and phospho-β-catenin Western blot / immunostaining in differentiating cells
Method: (§2) Cells were seeded on glass cover slips and cultured with or without DMSO for 3 days. Cells were fixed with 4% paraformaldehyde and penneablized with 0.2% Triton X-100 for 5 min. To detect phosphorylated β-catenin, cells were incubated overnight with rabbit antibody to phoshpo-β-catenin (Ser33/Ser37/Thr4l; Cell Signaling) in Tris-buffered saline, 3% bovine serum albumin, then for 1 hr with goat antibody to rabbit IgG conjugated with Alexa Fluor 488 (Molecular Probes). Immunostaining for sarcomeric myosin heavy chains (MHC) was performed using fluorescein isothiocyanate-conjugated MF20 antibody (Oh et al., 2001). Nuclei were counterstained with DAPI.
Cells were seeded on 6-well dishes (1.67×10^6 cells/well) and cultivated with or without 1% DMSO and 500 ng/ml Fx/FC chimeric protein. After 3 days, cells were harvested in phosphate-buffered saline in 4 C, centrifuged, and resuspended in 20 mM Tris-HCl, pH 7.5, 25 mM sodium fluoride, 1 mM EDTA, containing a protease inhibitor cocktail (Roche Molecular Biochemicals). Cells were incubated on ice for 20 min, followed by 30 strokes in a Dounce homogenizer, and centrifuged at 100,000×g for 30 min. The supernatant was collected as the soluble, cytoplasmic fraction and electrophoresised in 10% SDS-polyacrylamide gels. […]

P19CL6 cells [2] = assay: Spontaneous beating of differentiating cells
Method: as §1

[3] = test system: TCF-dependent transcription; assay: TCF-dependent transcription, TOPFLASH luciferase assay in P19CL6 cells; details: DMSO treatment for 4 days
Method: Cells were seeded and cultured as above and transfected 1 day after plating, using in serum-free αMEM for 6 hr. Transfections contained 0.5 μg TOPFLASH or 0.1 μg pRL-CMV as the co-transfected control. Medium containing 10% FBS with or without DMSO changed 6 and 48 hr after transfection. Cells were lysed 4 days after DMSO treatment and luciferase assayed using the Dual-Luciferase system (Promega). Firefly luciferase activity, indicating TCF-dependent transcription, was normalized to the Renilla luciferase activity of each extract. TOPFLASH activity induced by Wnt3A CM versus control CM was measured after 18 hr. Activity of the GSK-3βA9 expression vector was corroborated by transient transfection in 293T cells: cells were passaged at a 1:2.5 dilution into 24-well dishes, and TOPFLASH, pRL-CMV, and PGK-Wnt3A were co-transfected by calcium-phosphate precipitation along with pcDNA3-GSK-3βA9-HA versus the empty vector control (Jordan et al., 1996). Twenty-four hrs after transfection, the medium was changed to Dulbecco's modified Eagle's medium (DMEM) supplemented with 0.2% BSA. Forty-eight hrs after transfection, cells were lysed and luciferase activities were assayed.

P19CL6 cells [4] = assay: Sarcomeric MHC immunostaining (MF20-positive cells); set-up: dose or concentration left out as unconfirmed; details: LiCl, day 12
Method: as §2

Row | SMILES | time to expression of Nkx2.5, GATA4, MEF2C, and Tbx5 as early stage markers (P19CL6 cells [1]; 1% DMSO treatment, QRT-PCR) | Wnt3A and Wnt8A induced as early as (P19CL6 cells [1]; after DMSO treatment, expression greatest on day 3) | phosphorylated β-catenin (β-catenin; DMSO treatment for 3 days, immunoblotting and immunocytochemistry) | soluble (cytosolic) β-catenin level (β-catenin; DMSO, day 3, Western blot) | spontaneous beating visible (P19CL6 cells [2]; 1% DMSO treatment) | increase in luciferase activity (TCF-dependent transcriptional activity) [3] | expression of Nkx2.5, GATA4, Tbx5, BMP2, BMP4 (P19CL6 cells [1]; d 5, QRT-PCR) | effect on each of the early cardiac markers and on sarcomeric MHC (P19CL6 cells [1]; in the absence of DMSO) | spontaneous beating (P19CL6 cells [2]; treated alone, without DMSO) | MF20-positive cells (P19CL6 cells [4])
1 | C[S+](C)[O-] [DMSO] | 3 to 8 days | 2 days | decreased | accumulation of soluble β-catenin | 9 to 10 days | 9 fold |  |  |  | 
2 | [Cl-].[Li+] [LiCl] |  |  |  |  |  |  | significantly increased | inductive effect | did not show spontaneous beating | significantly increased
